# From PubChem BioAssay (NCI)
#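 Following 48 hours of exposure in 96-well plates, responses at five concentrations were used to interpolate endpoints linearly. GI50: concentration for 50% inhibition of growth. At the TGI there is no net growth.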
# Tests used:
# Assay in all cases: NCI-60 cell line screen, 48 h
# [1] = tested on: 786-0 renal
# [2] = tested on: A498 renal
# [3] = tested on: A549 NSCLC
# [4] = tested on: ACHN renal
# [5] = tested on: BT-549 breast
# [6] = tested on: CAKI-1 renal
# [7] = tested on: CCRF-CEM leukemia
# [8] = tested on: COLO 205 colon
# [9] = tested on: DU-145 prostate
# [10] = tested on: EKVX NSCLC
# [11] = tested on: HCC-2998 colon
# [12] = tested on: HCT-116 colon
# [13] = tested on: HCT-15 colon
# [14] = tested on: HL-60(TB) leukemia
# [15] = tested on: HOP-62 NSCLC
# [16] = tested on: HOP-92 NSCLC
# [17] = tested on: HS 578T breast
# [18] = tested on: HT29 colon
# [19] = tested on: IGROV1 ovarian
# [20] = tested on: K-562 leukemia
# [21] = tested on: KM12 colon
# [22] = tested on: LOX IMVI melanoma
# [23] = tested on: M14 melanoma
# [24] = tested on: MALME-3M melanoma
# [25] = tested on: MCF7 breast
# [26] = tested on: MDA-MB-231 breast
# [27] = tested on: MDA-MB-435
# [28] = tested on: MDA-MB-468 breast
# [29] = tested on: MOLT-4 leukemia
# [30] = tested on: NCI-H226 lung
# [31] = tested on: NCI-H23 lung
# [32] = tested on: NCI-H460 lung
# [33] = tested on: NCI-H522 lung
# [34] = tested on: NCI/ADR-RES ovarian
# [35] = tested on: OVCAR-3 ovarian
# [36] = tested on: OVCAR-4 ovarian
# [37] = tested on: OVCAR-5 ovarian
# [38] = tested on: OVCAR-8 ovarian
# [39] = tested on: PC-3 prostate
# [40] = tested on: RPMI-8226 leukemia
# [41] = tested on: RXF 393 renal
# [42] = tested on: SF-268 CNS
# [43] = tested on: SF-295 CNS
# [44] = tested on: SF-539 CNS
# [45] = tested on: SK-MEL-2 melanoma
# [46] = tested on: SK-MEL-28 melanoma
# [47] = tested on: SK-MEL-5 melanoma
# [48] = tested on: SK-OV-3 ovarian
# [49] = tested on: SN12C renal
# [50] = tested on: SNB-19 CNS
# [51] = tested on: SNB-75 CNS
# [52] = tested on: SW-620 colon
# [53] = tested on: T-47D breast
# [54] = tested on: TK-10 renal
# [55] = tested on: U251 CNS
# [56] = tested on: UACC-257 melanoma
# [57] = tested on: UACC-62 melanoma
# [58] = tested on: UO-31 renal
compound,measurement,setting,value
Cc1nc(Nc2ccccn2)sc1C(=O)CC(SCC(=O)Nc1ccc(Cl)cc1)c1ccccc1F (stereo unspecified),GI50,[1],3.74 µM
same,TGI,[1],14.3 µM
same,GI50,[2],12.7 µM
same,TGI,[2],35.7 µM
same,GI50,[3],3.15 µM
same,TGI,[3],22.8 µM
same,GI50,[4],3.9 µM
same,TGI,[4],14.8 µM
same,GI50,[5],2.83 µM
same,TGI,[5],9.85 µM
same,GI50,[6],2.71 µM
same,TGI,[6],16.9 µM
same,GI50,[7],2.39 µM
same,TGI,[7],> 100 µM
same,GI50,[8],2.18 µM
same,TGI,[8],4.67 µM
same,GI50,[9],3.34 µM
same,TGI,[9],13.2 µM
same,GI50,[10],3.15 µM
same,TGI,[10],13.4 µM
same,GI50,[11],3.44 µM
same,TGI,[11],13.8 µM
same,GI50,[12],2.2 µM
same,TGI,[12],6.46 µM
same,GI50,[13],1.8 µM
same,TGI,[13],11.2 µM
same,GI50,[14],> 100 µM
same,TGI,[14],> 100 µM
same,GI50,[15],2.79 µM
same,TGI,[15],12.3 µM
same,GI50,[16],4.94 µM
same,TGI,[16],25.9 µM
same,GI50,[17],2.14 µM
same,TGI,[17],6.17 µM
same,GI50,[18],2.16 µM
same,TGI,[18],5.44 µM
same,GI50,[19],3.87 µM
same,TGI,[19],20.7 µM
same,GI50,[20],> 100 µM
same,TGI,[20],> 100 µM
same,GI50,[21],1.39 µM
same,TGI,[21],8.67 µM
same,GI50,[22],2.31 µM
same,TGI,[22],10.3 µM
same,GI50,[23],1.69 µM
same,TGI,[23],4.02 µM
same,GI50,[24],4.91 µM
same,TGI,[24],19.6 µM
same,GI50,[25],1.25 µM
same,TGI,[25],13.8 µM
same,GI50,[26],2.64 µM
same,TGI,[26],7.86 µM
same,GI50,[27],1.02 µM
same,TGI,[27],2.78 µM
same,GI50,[28],1.58 µM
same,TGI,[28],5.05 µM
same,GI50,[29],> 100 µM
same,TGI,[29],> 100 µM
same,GI50,[30],7.91 µM
same,TGI,[30],31.2 µM
same,GI50,[31],3.84 µM
same,TGI,[31],15.7 µM
same,GI50,[32],2.23 µM
same,TGI,[32],5.22 µM
same,GI50,[33],2.22 µM
same,TGI,[33],6.4 µM
same,GI50,[34],1.81 µM
same,TGI,[34],5.44 µM
same,GI50,[35],1.53 µM
same,TGI,[35],11.6 µM
same,GI50,[36],11.4 µM
same,TGI,[36],71.4 µM
same,GI50,[37],2.6 µM
same,TGI,[37],6.89 µM
same,GI50,[38],2.31 µM
same,TGI,[38],5.88 µM
same,GI50,[39],4.04 µM
same,TGI,[39],93.6 µM
same,GI50,[40],3.33 µM
same,TGI,[40],72.1 µM
same,GI50,[41],2.32 µM
same,TGI,[41],8.73 µM
same,GI50,[42],3.74 µM
same,TGI,[42],17.3 µM
same,GI50,[43],2.77 µM
same,TGI,[43],12.3 µM
same,GI50,[44],2.02 µM
same,TGI,[44],4.41 µM
same,GI50,[45],2.03 µM
same,TGI,[45],4.74 µM
same,GI50,[46],5.45 µM
same,TGI,[46],19.7 µM
same,GI50,[47],2.2 µM
same,TGI,[47],5.86 µM
same,GI50,[48],3.63 µM
same,TGI,[48],29.2 µM
same,GI50,[49],2.72 µM
same,TGI,[49],10.5 µM
same,GI50,[50],3.28 µM
same,TGI,[50],14.4 µM
same,GI50,[51],1.42 µM
same,TGI,[51],6.22 µM
same,GI50,[52],2.56 µM
same,TGI,[52],11.7 µM
same,GI50,[53],2.28 µM
same,TGI,[53],9.79 µM
same,GI50,[54],4.79 µM
same,TGI,[54],16.8 µM
same,GI50,[55],2.22 µM
same,TGI,[55],6.41 µM
same,GI50,[56],4.72 µM
same,TGI,[56],19.4 µM
same,GI50,[57],2.24 µM
same,TGI,[57],10.3 µM
same,GI50,[58],3.44 µM
same,TGI,[58],16.4 µM
